Measurements reported in ChEMBL document CHEMBL4350964, “Discovery of the theobromine derivative MQS-14 that induces death of MGC-803 cells mainly through ROS-mediated mechanisms” (Eur J Med Chem, 2019).
Activity calls are given as the source filed them. No cut-off for these calls is given here.

Columns and labels:
[1] = tested on: MGC-803; assay: Cytotoxicity against human MGC803 cells assessed as growth inhibition at 20 uM after 48 hrs by MTT assay relative to control; type: functional; conditions: MGC-803, 48 h
[2] = tested on: SGC-7901; assay: Cytotoxicity against human SGC7901 cells assessed as reduction in cell viability by MTT assay; type: functional, cell-based
[3] = tested on: HGC-27; assay: Cytotoxicity against human HGC27 cells assessed as reduction in cell viability by MTT assay; type: functional, cell-based
[4] = Selectivity ratio of IC50 for human GES-1 cells to IC50 for human MGC803 cells; type: toxicity; conditions: GES-1 cells and MGC803 cells, read-out: Ratio IC50
[5] = tested on: GES1; assay: Cytotoxicity against human GES-1 cells assessed as reduction in cell viability by MTT assay; type: cell-based
[6] = tested on: MGC-803; assay: Cytotoxicity against human MGC803 cells assessed as reduction in cell viability by MTT assay; type: functional, cell-based
[7] = tested on: MGC-803; assay: Induction of apoptosis in human MGC803 cells assessed as increase in cleaved caspase-7 expression up to 9 uM after 24 hrs by Western blot analysis; type: functional, cell-based
[8] = tested on: MGC-803; assay: Antiproliferative activity against human MGC803 cells assessed as inhibition of cell proliferation preincubated for 16 hrs followed by Edu addition and measured after 8 hrs by Hoechst 33342 staining-based confocal laser scanning microscopic analysis; type: functional
[9] = tested on: MGC-803; assay: Antiproliferative activity against human MGC803 cells assessed as inhibition of cell division measured after 24 hrs by CFDA-SE staining based flow cytometric analysis; type: functional
[10] = tested on: MGC-803; assay: Induction of mitochondrial dysfunction in human MGC803 cells assessed as reduction in mitochondrial potential at 3 to 9 uM after 24 hrs by JC-1 staining based flow cytometry; type: functional, cell-based
[11] = species on record: Homo sapiens; assay: Activation of MAPK signalling in human MGC803 cells assessed as decrease in ERK phosphorylation at 3 to 6 uM after 24 hrs by Western blot analysis; type: cell-based
[12] = tested on: MGC-803; assay: Induction of apoptosis in human MGC803 cells assessed as viable cells at 9 uM after 24 hrs by Annexin-V-FITC/propidium iodide staining based flow cytometry (reference value: 90.4%); type: functional; conditions: MGC-803, 24 h, read-out: Activity
[13] = tested on: MGC-803; assay: Effect on Cleaved caspase-7 level in human MGC803 cells assessed decrease in cleaved caspase-7 expression at 6 uM after 24 hrs in presence of NAC by Western blot analysis; type: functional, cell-based
[14] = species on record: Homo sapiens; assay: Activation of MAPK signalling in human MGC803 cells assessed as change in p38 phosphorylation at 3 to 6 uM after 24 hrs by Western blot analysis; type: cell-based
[15] = tested on: MGC-803; assay: Cytotoxicity in human MGC803 cells assessed as cell viability at 6 uM pretreated with pan-caspase inhibitor Z-VAD-fmk for 1 hr followed by compound addition and measured after 24 hrs by MTT assay relative to control; type: functional; conditions: read-out: Activity
[16] = tested on: MGC-803; assay: Induction of DNA damage in human MGC803 cells assessed as formation of DNA long tailing at 6 uM by comet assay; type: functional, cell-based
[17] = tested on: MGC-803; assay: Induction of apoptosis in human MGC803 cells assessed as necrotic cells at 6 uM after 24 hrs by Annexin-V-FITC/propidium iodide staining based flow cytometry (reference value: 1.5%); type: functional
[18] = tested on: MGC-803; assay: Induction of apoptosis in human MGC803 cells assessed as early apoptotic cells at 3 uM after 24 hrs by Annexin-V-FITC/propidium iodide staining based flow cytometry (reference value: 6.4%); type: functional
[19] = tested on: MGC-803; assay: Induction of apoptosis in human MGC803 cells assessed as viable cells at 6 uM after 24 hrs by Annexin-V-FITC/propidium iodide staining based flow cytometry (reference value: 90.4%); type: functional; conditions: MGC-803, 24 h, read-out: Activity
[20] = tested on: MGC-803; assay: Effect on Cleaved PARP level in human MGC803 cells assessed decrease in cleaved PARP expression at 6 uM after 24 hrs in presence of NAC by Western blot analysis; type: functional, cell-based
[21] = tested on: MGC-803; assay: Induction of apoptosis in human MGC803 cells assessed as viable cells at 3 uM after 24 hrs by Annexin-V-FITC/propidium iodide staining based flow cytometry (reference value: 90.4%); type: functional; conditions: MGC-803, 24 h, read-out: Activity
[22] = tested on: MGC-803; assay: Cytotoxicity against human MGC803 cells assessed as reduction in cell viability at 6 uM after 24 hrs in presence of ROS scavenger N-acetyl-L-cysteine by MTT assay; type: functional, cell-based
[23] = tested on: MGC-803; assay: Induction of apoptosis in human MGC803 cells assessed as increase in cleaved caspase-9 expression up to 9 uM after 24 hrs by Western blot analysis; type: functional, cell-based
[24] = tested on: MGC-803; assay: Cytotoxicity in human MGC803 cells assessed as cell viability at 6 uM after 24 hrs by MTT assay relative to control; type: functional; conditions: MGC-803, 24 h, read-out: Activity
[25] = tested on: MGC-803; assay: Induction of apoptosis in human MGC803 cells assessed as late apoptotic cells at 6 uM after 24 hrs by Annexin-V-FITC/propidium iodide staining based flow cytometry (reference value: 1.8%); type: functional
[26] = tested on: MGC-803; assay: Induction of apoptosis in human MGC803 cells assessed as increase in cleaved caspase-3 expression up to 9 uM after 24 hrs by Western blot analysis; type: functional, cell-based
[27] = tested on: MGC-803; assay: Induction of ROS generation in human MGC803 cells after 24 hrs by DCFH-DA dye based flow cytometry; type: functional, cell-based
[28] = tested on: MGC-803; assay: Induction of apoptosis in human MGC803 cells assessed as late apoptotic cells at 9 uM after 24 hrs by Annexin-V-FITC/propidium iodide staining based flow cytometry (reference value: 1.8%); type: functional
[29] = species on record: Homo sapiens; assay: Activation of MAPK signalling in human MGC803 cells assessed as decrease in ERK phosphorylation measured after 24 hrs in presence of NAC by Western blot analysis; type: cell-based
[30] = tested on: MGC-803; assay: Induction of apoptosis in human MGC803 cells assessed as increase in cleaved PARP expression up to 9 uM after 24 hrs by Western blot analysis; type: functional, cell-based
[31] = species on record: Homo sapiens; assay: Activation of MAPK signalling in human MGC803 cells assessed as increase in JNK phosphorylation at 6 uM measured after 24 hrs in presence of NAC by Western blot analysis; type: cell-based
[32] = tested on: MGC-803; assay: Effect on Cleaved caspase-9 level in human MGC803 cells assessed decrease in cleaved caspase-9 expression at 6 uM after 24 hrs in presence of NAC by Western blot analysis; type: functional, cell-based
[33] = tested on: MGC-803; assay: Induction of apoptosis in human MGC803 cells assessed as early apoptotic cells at 6 uM after 24 hrs by Annexin-V-FITC/propidium iodide staining based flow cytometry (reference value: 6.4%); type: functional
[34] = tested on: MGC-803; assay: Induction of apoptosis in human MGC803 cells assessed as late apoptotic cells at 3 uM after 24 hrs by Annexin-V-FITC/propidium iodide staining based flow cytometry (reference value: 1.8%); type: functional
[35] = tested on: MGC-803; assay: Induction of apoptosis in human MGC803 cells assessed as necrotic cells at 9 uM after 24 hrs by Annexin-V-FITC/propidium iodide staining based flow cytometry (reference value: 1.5%); type: functional
[36] = tested on: MGC-803; assay: Induction of apoptosis in human MGC803 cells assessed as early apoptotic cells at 9 uM after 24 hrs by Annexin-V-FITC/propidium iodide staining based flow cytometry (reference value: 6.4%); type: functional
[37] = species on record: Homo sapiens; assay: Activation of MAPK signalling in human MGC803 cells assessed as increase in JNK phosphorylation at 3 to 6 uM after 24 hrs by Western blot analysis; type: cell-based
[38] = tested on: MGC-803; assay: Induction of DNA damage in human MGC803 cells assessed as formation of DNA long tailing at 6 uM in presence of NAC by comet assay; type: functional, cell-based
[39] = tested on: MGC-803; assay: Induction of apoptosis in human MGC803 cells assessed as necrotic cells at 3 uM after 24 hrs by Annexin-V-FITC/propidium iodide staining based flow cytometry (reference value: 1.5%); type: functional

Compound: CCCn1c(SCc2ccc(C(C)(C)C)cc2)nc2c1c(=O)[nH]c(=O)n2C
- inhibition at 20 µM [1]: 10.3%

Compound: Cn1cnc2c1c(=O)n(CC(=O)OC(C)(C)C)c(=O)n2C
- inhibition at 20 µM [1]: 17.2%

Compound: Cn1cnc2c1c(=O)n(CC(=O)N1CCSCC1)c(=O)n2C
- inhibition at 20 µM [1]: 5.6%

Compound: CN1CCN(C(=O)Cn2c(=O)c3c(ncn3C)n(C)c2=O)CC1
- inhibition at 20 µM [1]: 8.6%

Compound: Cn1cnc2c1c(=O)n(CC(=O)O)c(=O)n2C
- inhibition at 20 µM [1]: 0.8%

Compound: CCCn1c(SCc2cccc(C)c2)nc2c1c(=O)[nH]c(=O)n2C
- IC50 [2]: 16 µM
- IC50 [3]: 10 µM
- selectivity ratio [4]: 2 to 3
- IC50 [5]: 16 µM
- inhibition at 20 µM [1]: 84.1%
- IC50 [6]: 7.2 µM

Compound: C#CCN1CCN(C(=O)Cn2c(=O)c3c(ncn3C)n(C)c2=O)CC1
- inhibition at 20 µM [1]: 14.1%

Compound: CCCn1c(SCc2cccc(OC)c2)nc2c1c(=O)[nH]c(=O)n2C
- inhibition at 20 µM [1]: 34.2%

Compound: Cn1cnc2c1c(=O)n(CC(=O)N1CCC(F)(F)CC1)c(=O)n2C
- inhibition at 20 µM [1]: 11.3%

Compound: CCCn1c(SCc2ccccc2C)nc2c1c(=O)[nH]c(=O)n2C
- Activity [7]: Active
- IC50 [2]: 15 µM
- inhibition [8]: Dose-dependent effect
- inhibition [9]: Dose-dependent effect
- IC50 [3]: 9.1 µM
- Activity [10]: Dose-dependent effect
- Activity [11]: Dose-dependent effect
- selectivity ratio [4]: 2 to 3
- viability at 9 µM [12]: 23.1%
- Activity [13]: Active
- Activity [14]: Active
- viability at 6 µM [15]: 93%
- Activity [16]: Active
- Activity [17]: 0.7%
- Activity [18]: 25.4%
- viability at 6 µM [19]: 55%
- Activity [20]: Active
- viability at 3 µM [21]: 71.5%
- Activity [22]: inactive
- Activity [23]: Active
- viability at 6 µM [24]: 66%
- Activity [25]: 2.4%
- Activity [26]: Active
- Activity [27]: Dose-dependent effect
- Activity [28]: 32%
- Activity [29]: inactive
- Activity [30]: Active
- Activity [31]: inactive
- IC50 [5]: 13 µM
- Activity [32]: Active
- inhibition at 20 µM [1]: 88.6%
- Activity [33]: 41.9%
- Activity [34]: 1.7%
- Activity [35]: 0.9%
- IC50 [6]: 6.6 µM
- Activity [36]: 44%
- Activity [37]: Active
- Activity [38]: inactive
- Activity [39]: 1.5%

Compound: O=c1[nH]cc(F)c(=O)[nH]1 [FLUOROURACIL]
- IC50 [2]: 21 µM
- IC50 [3]: 18 µM
- IC50 [6]: 14 µM

Compound: Cn1cnc2c1c(=O)n(CC(=O)N1CCCCC1)c(=O)n2C
- inhibition at 20 µM [1]: 16.8%

Compound: CCCn1c(SCc2ccc([N+](=O)[O-])cc2)nc2c1c(=O)[nH]c(=O)n2C
- inhibition at 20 µM [1]: 19.8%

Compound: CCCn1c(SCc2ccc(F)cc2)nc2c1c(=O)[nH]c(=O)n2C
- IC50 [2]: 15 µM
- IC50 [3]: 9.7 µM
- selectivity ratio [4]: 2 to 3
- IC50 [5]: 14 µM
- inhibition at 20 µM [1]: 86.5%
- IC50 [6]: 5.4 µM

Compound: Cn1cnc2c1c(=O)n(CC(=O)N1CCN(Cc3ccc(Cl)cc3)CC1)c(=O)n2C
- inhibition at 20 µM [1]: 22.5%

Compound: Cn1cnc2c1c(=O)n(CC(=O)N1CCC(N3CCCCC3)CC1)c(=O)n2C
- inhibition at 20 µM [1]: 19.8%

Compound: CCCn1c(SCC(=O)Nc2ccc(C)cc2)nc2c1c(=O)[nH]c(=O)n2C
- inhibition at 20 µM [1]: 42.2%

Compound: C=CC(=O)N1CCN(C(=O)Cn2c(=O)c3c(ncn3C)n(C)c2=O)CC1
- inhibition at 20 µM [1]: 1.3%

Compound: Cn1cnc2c1c(=O)n(CC(=O)N1CCOCC1)c(=O)n2C
- inhibition at 20 µM [1]: 19.9%

Compound: C=CCSc1nc2c(c(=O)[nH]c(=O)n2C)n1CCC
- inhibition at 20 µM [1]: 5.5%

Compound: Cn1cnc2c1c(=O)n(CC(=O)N1CCN(C(=O)OC(C)(C)C)CC1)c(=O)n2C
- inhibition at 20 µM [1]: 20%

Compound: Cc1ccc(S(=O)(=O)N2CCN(C(=O)Cn3c(=O)c4c(ncn4C)n(C)c3=O)CC2)cc1
- inhibition at 20 µM [1]: 20.1%

Compound: Cn1cnc2c1c(=O)n(CC(=O)N1CCN(c3ccccc3)CC1)c(=O)n2C
- inhibition at 20 µM [1]: 4.6%

Compound: Cn1cnc2c1c(=O)n(CC(=O)N1CCN(C(=O)/C=C/c3ccccc3)CC1)c(=O)n2C
- inhibition at 20 µM [1]: 9.5%
